From ChEMBL document CHEMBL6096706, “Discovery of WDR5-MLL1 and HDAC Dual-Target Inhibitors for the Treatment of Acute Myeloid Leukemia” (J Med Chem, 2025)
Values belong to the compound of their own block, whether it stands above or below them.

Legend:
MV4-11 [1] = assay: Induction of apoptosis in human MV4-11 cells assessed as late apoptotic cells at 200 nmol/L incubated for 72 hrs by Annexin V/PI staining based flow cytometry analysis (reference value: 5.14%); assay type: functional
MV4-11 [2] = assay: Induction of apoptosis in human MV4-11 cells assessed as necrotic cells at 200 nmol/L incubated for 72 hrs by Annexin V/PI staining based flow cytometry analysis (reference value: 0.46%); assay type: functional
MV4-11 [3] = assay: Induction of apoptosis in human MV4-11 cells assessed as early apoptotic cells at 200 nmol/L incubated for 72 hrs by Annexin V/PI staining based flow cytometry analysis (reference value: 4.17 %); assay type: functional
MV4-11 [4] = assay: Induction of apoptosis in human MV4-11 cells assessed as viable cells at 200 nmol/L incubated for 72 hrs by Annexin V/PI staining based flow cytometry analysis (reference value: 90.23%); assay type: functional
[5] = biological target: Histone-lysine N-methyltransferase 2A/WDR5 (Homo sapiens, UniProt P61964); assay: Inhibition of MLL1/WDR5 (unknown origin) protein-protein interaction incubated for 2 hrs by FP analysis; assay type: protein assay
Histone deacetylase 3 = Histone deacetylase 3 (Homo sapiens, UniProt O15379); assay: Inhibition of HDAC3 (unknown origin) by fluorescence based assay
Histone deacetylase 3, sequence (O15379 whole entry): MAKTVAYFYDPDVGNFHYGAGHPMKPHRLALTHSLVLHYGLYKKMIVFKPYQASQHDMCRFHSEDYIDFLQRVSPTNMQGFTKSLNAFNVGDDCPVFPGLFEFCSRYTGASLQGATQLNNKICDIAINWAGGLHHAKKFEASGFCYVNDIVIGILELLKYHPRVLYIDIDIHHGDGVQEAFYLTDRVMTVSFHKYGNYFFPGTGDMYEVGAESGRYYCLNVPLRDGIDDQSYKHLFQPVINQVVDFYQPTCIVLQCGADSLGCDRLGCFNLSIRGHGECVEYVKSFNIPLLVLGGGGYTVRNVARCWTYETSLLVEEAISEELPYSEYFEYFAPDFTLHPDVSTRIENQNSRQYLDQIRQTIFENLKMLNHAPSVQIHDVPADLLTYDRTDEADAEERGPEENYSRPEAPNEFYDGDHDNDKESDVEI

MOLM-13 = assay: cells; assay type: functional, cell-based; details: Homo sapiens, MOLM-13, 72 h
Description: Antiproliferative activity against human MOLM-13 cells assessed as inhibition of cell growth measured after 72 hrs by CellTiterGlo assay

Histone deacetylase 1 = Histone deacetylase 1 (Homo sapiens, UniProt Q13547); assay: Inhibition of HDAC1 (unknown origin) by fluorescence based assay
Histone deacetylase 1, sequence (Q13547 whole entry): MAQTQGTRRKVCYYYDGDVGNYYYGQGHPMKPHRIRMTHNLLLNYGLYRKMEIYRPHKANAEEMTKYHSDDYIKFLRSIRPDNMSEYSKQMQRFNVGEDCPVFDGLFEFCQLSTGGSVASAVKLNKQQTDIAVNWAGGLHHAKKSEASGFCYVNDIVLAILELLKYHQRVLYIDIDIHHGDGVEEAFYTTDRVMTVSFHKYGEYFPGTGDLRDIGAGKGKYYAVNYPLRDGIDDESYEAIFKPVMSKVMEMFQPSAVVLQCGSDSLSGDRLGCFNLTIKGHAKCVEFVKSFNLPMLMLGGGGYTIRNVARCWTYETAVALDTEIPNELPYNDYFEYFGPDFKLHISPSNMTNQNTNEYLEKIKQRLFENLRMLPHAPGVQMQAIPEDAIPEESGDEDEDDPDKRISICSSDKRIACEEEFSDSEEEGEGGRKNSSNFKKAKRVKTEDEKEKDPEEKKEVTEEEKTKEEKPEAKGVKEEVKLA

[6] = biological target: T1, Protein deacetylase HDAC6 (Homo sapiens, UniProt Q9UBN7); assay: Inhibition of HDAC6 (unknown origin) by fluorescence based assay
T1 sequence (Q9UBN7 whole entry): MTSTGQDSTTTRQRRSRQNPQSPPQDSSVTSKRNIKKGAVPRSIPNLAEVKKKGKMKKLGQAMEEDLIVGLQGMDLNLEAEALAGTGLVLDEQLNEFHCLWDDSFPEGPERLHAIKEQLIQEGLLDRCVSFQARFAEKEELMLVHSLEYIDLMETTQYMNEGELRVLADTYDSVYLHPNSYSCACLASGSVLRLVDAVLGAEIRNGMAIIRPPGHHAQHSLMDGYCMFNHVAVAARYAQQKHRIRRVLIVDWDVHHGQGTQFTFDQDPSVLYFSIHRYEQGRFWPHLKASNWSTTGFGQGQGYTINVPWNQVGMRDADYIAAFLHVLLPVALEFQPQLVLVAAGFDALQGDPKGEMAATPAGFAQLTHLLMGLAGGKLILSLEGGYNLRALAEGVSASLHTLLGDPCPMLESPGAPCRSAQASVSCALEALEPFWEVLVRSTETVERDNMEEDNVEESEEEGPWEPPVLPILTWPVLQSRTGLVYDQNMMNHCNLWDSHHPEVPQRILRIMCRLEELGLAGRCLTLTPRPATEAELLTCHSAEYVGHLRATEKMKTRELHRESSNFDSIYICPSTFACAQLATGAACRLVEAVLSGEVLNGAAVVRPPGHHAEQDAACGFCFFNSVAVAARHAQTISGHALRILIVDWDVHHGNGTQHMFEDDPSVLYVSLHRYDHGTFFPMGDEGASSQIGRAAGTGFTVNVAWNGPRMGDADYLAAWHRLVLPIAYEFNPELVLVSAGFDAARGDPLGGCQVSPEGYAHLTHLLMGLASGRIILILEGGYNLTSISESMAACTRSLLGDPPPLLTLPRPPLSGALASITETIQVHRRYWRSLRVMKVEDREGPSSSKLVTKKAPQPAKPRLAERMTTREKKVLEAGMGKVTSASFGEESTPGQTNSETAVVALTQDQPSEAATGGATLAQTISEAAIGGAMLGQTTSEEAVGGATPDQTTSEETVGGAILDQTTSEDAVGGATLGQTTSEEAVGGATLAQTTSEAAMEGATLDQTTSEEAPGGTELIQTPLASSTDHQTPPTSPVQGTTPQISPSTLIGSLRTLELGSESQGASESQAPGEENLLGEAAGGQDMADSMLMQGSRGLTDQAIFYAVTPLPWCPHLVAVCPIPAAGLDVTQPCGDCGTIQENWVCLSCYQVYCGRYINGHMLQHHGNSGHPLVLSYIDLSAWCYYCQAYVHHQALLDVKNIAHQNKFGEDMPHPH

MV4-11 [7] = assay: cells; assay type: functional, cell-based; details: Homo sapiens, MV4-11, 72 h
Description: Antiproliferative activity against human MV4-11 cells assessed as inhibition of cell growth measured after 72 hrs by CellTiterGlo assay

[8] = biological target: Histone-lysine N-methyltransferase 2A (Homo sapiens, UniProt Q03164); assay: Inhibition of MLL1 (unknown origin) by fluorescence based assay
Histone deacetylase 2 = Histone deacetylase 2 (Homo sapiens, UniProt Q92769); assay: Inhibition of HDAC2 (unknown origin) by fluorescence based assay
Histone deacetylase 2, sequence (Q92769 whole entry): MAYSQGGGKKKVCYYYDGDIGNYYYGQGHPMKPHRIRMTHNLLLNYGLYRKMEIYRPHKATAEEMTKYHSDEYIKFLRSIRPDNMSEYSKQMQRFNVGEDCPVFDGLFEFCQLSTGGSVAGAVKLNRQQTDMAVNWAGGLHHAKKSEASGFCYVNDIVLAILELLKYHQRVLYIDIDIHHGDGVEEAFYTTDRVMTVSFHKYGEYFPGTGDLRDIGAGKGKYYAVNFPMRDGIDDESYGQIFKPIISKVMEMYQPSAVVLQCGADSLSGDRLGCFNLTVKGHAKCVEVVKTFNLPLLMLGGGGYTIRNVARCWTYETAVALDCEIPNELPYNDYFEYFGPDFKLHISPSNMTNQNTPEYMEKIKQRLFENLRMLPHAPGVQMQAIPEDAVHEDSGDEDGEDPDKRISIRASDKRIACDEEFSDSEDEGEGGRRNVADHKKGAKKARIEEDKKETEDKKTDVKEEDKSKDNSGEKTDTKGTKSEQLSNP

Histone deacetylase 8 = biological target: T2, Histone deacetylase 8 (Homo sapiens, UniProt Q9BY41); assay: Inhibition of HDAC8 (unknown origin) by fluorescence based assay
T2 sequence (Q9BY41 whole entry): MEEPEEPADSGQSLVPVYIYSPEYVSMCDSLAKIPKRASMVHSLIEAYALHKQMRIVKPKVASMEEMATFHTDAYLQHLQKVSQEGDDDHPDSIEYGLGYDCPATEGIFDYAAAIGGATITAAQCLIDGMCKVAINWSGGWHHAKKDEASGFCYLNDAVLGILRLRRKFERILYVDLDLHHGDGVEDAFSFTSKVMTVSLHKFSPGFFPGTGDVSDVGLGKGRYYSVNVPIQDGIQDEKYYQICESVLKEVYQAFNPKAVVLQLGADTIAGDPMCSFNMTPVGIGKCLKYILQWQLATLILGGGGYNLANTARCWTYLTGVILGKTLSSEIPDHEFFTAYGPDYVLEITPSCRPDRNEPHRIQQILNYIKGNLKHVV

Histone deacetylase 4 = Histone deacetylase 4 (Homo sapiens, UniProt P56524); assay: Inhibition of HDAC4 (unknown origin) by fluorescence based assay
Histone deacetylase 4, sequence (P56524 whole entry): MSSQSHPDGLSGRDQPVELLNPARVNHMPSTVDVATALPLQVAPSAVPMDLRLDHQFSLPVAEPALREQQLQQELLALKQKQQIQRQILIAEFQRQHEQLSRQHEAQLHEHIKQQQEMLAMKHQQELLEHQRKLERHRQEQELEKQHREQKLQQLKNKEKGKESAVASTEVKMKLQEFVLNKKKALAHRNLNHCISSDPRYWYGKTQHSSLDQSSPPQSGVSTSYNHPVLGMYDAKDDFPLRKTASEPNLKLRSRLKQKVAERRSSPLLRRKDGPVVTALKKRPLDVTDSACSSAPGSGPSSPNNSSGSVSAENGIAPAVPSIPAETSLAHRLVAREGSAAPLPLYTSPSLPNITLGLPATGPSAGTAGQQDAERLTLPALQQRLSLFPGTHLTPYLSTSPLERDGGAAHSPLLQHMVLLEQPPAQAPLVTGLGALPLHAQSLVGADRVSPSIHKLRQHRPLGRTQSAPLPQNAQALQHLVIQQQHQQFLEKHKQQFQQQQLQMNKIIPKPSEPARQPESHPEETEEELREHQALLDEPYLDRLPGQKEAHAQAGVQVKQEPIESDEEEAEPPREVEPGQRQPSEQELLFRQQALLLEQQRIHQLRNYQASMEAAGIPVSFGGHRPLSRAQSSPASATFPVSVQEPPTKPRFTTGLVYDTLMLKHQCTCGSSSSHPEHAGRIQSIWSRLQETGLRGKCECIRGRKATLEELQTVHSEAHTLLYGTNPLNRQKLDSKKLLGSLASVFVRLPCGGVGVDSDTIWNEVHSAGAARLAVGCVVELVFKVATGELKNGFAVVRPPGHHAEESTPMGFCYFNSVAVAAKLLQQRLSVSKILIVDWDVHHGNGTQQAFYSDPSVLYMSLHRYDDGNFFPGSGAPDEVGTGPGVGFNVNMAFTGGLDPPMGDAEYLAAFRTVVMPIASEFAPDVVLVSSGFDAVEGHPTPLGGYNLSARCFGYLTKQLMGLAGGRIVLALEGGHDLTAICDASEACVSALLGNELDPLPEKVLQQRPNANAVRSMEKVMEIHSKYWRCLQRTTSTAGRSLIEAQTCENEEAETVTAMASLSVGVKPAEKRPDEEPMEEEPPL

Histone deacetylase 11 = biological target: T3, Histone deacetylase 11 (Homo sapiens, UniProt Q96DB2); assay: Inhibition of HDAC11 (unknown origin) by fluorescence based assay
T3 sequence (Q96DB2 whole entry): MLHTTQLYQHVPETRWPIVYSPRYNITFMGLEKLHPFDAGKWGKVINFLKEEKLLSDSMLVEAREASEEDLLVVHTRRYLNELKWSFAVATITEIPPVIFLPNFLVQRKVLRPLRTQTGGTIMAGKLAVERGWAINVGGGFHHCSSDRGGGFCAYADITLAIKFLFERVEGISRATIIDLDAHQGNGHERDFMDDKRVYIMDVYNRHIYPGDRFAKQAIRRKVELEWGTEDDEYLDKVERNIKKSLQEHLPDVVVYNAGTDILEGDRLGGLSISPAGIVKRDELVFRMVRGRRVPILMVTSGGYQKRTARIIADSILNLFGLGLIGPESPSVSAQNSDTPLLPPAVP

SMILES: O=C(CCCCCCC(=O)Nc1ccccc1)NO [VORINOSTAT]
Activity (MV4-11 [1]): 20.55% | Activity (MV4-11 [2]): 1.42% | Activity (MV4-11 [3]): 14.43% | Activity (MV4-11 [4]): 63.59%

SMILES: Cc1c(F)c(N)cc(C(=O)Nc2cc(-c3ccc(NC(=O)CCCCCCCC(=O)NO)cc3)ccc2N2CCN(C)CC2)c1Cl
IC50 [5]: 230 nM

SMILES: Cc1c(F)c(N)cc(C(=O)Nc2cc(-c3ccc(NC(=O)c4ccccc4N)cc3)ccc2N2CCN(C)CC2)c1Cl
IC50 [5]: 410 nM | IC50 (Histone deacetylase 3): 10000 nM

SMILES: Cc1c(F)c(N)cc(C(=O)Nc2cc(-c3ccc(NC(=O)CCCCCC(=O)NO)cc3)ccc2N2CCN(C)CC2)c1Cl
IC50 [5]: 181 nM

SMILES: Cc1c(F)c(N)cc(C(=O)Nc2cc(-c3ccc(NC(=O)c4ccc(/C=C/C(=O)NO)cc4)cc3)ccc2N2CCN(C)CC2)c1Cl
IC50 [5]: 435 nM | IC50 (MOLM-13): 2580 nM | IC50 (Histone deacetylase 1): 6980 nM | IC50 (Histone deacetylase 3): 5900 nM | IC50 [6]: 1200 nM | IC50 (MV4-11 [7]): 122 nM

SMILES: Cc1c(F)c(N)cc(C(=O)Nc2cc(-c3ccc(NC(=O)CCc4ccc(/C=C/C(=O)NO)cc4)cc3)ccc2N2CCN(C)CC2)c1Cl
IC50 [5]: 382 nM | IC50 (MOLM-13): 3220 nM | IC50 (Histone deacetylase 1): 925 nM | IC50 (Histone deacetylase 3): 586 nM | IC50 [6]: 157 nM | IC50 (MV4-11 [7]): 145 nM

SMILES: Cc1c(F)c(N)cc(C(=O)Nc2cc(-c3ccc(C(=O)NCCCCCCCC(=O)NO)cc3)ccc2N2CCN(C)CC2)c1Cl
IC50 [5]: 188 nM

SMILES: Cc1c(F)c(N)cc(C(=O)Nc2cc(-c3ccc(NC(=O)CCCCCCC(=O)NO)cc3)ccc2N2CCN(C)CC2)c1Cl
IC50 [5]: 41 nM | IC50 [8]: 392 nM | IC50 (Histone deacetylase 2): 99 nM | IC50 (Histone deacetylase 8): > 10000 nM | IC50 (Histone deacetylase 4): 3960 nM | IC50 (Histone deacetylase 11): 7610 nM

The remaining compounds from weak to strong by IC50 [5], led by results:

IC50 [5]: 226 nM
SMILES: Cc1c(F)c(N)cc(C(=O)Nc2cc(-c3ccc(NC(=O)c4ccc(CC(=O)NO)cc4)cc3)ccc2N2CCN(C)CC2)c1Cl

IC50 [5]: 215 nM
SMILES: Cc1c(F)c(N)cc(C(=O)Nc2cc(-c3ccc(C(=O)Nc4ccccc4N)cc3)ccc2N2CCN(C)CC2)c1Cl

IC50 [5]: 87 nM
SMILES: Cc1c(F)c(N)cc(C(=O)Nc2cc(-c3ccc(NC(=O)Cc4ccc(C(=O)NO)cc4)cc3)ccc2N2CCN(C)CC2)c1Cl

IC50 [5]: 71 nM
SMILES: Cc1c(F)c(N)cc(C(=O)Nc2cc(-c3ccc(C(=O)NCCCCCC(=O)NO)cc3)ccc2N2CCN(C)CC2)c1Cl

IC50 [5]: 69 nM | IC50 (MOLM-13): 310 nM | IC50 (Histone deacetylase 1): 831 nM | IC50 (Histone deacetylase 3): 663 nM | IC50 [6]: 157 nM | IC50 (MV4-11 [7]): 115 nM
SMILES: Cc1c(F)c(N)cc(C(=O)Nc2cc(-c3ccc(NC(=O)Cc4ccc(/C=C/C(=O)NO)cc4)cc3)ccc2N2CCN(C)CC2)c1Cl

IC50 [5]: 43 nM
SMILES: Cc1c(F)c(N)cc(C(=O)Nc2cc(-c3ccc(NC(=O)CCCC(=O)NO)cc3)ccc2N2CCN(C)CC2)c1Cl

IC50 [5]: 40 nM
SMILES: Cc1c(F)c(N)cc(C(=O)Nc2cc(-c3ccc(C(=O)NCCCCC(=O)NO)cc3)ccc2N2CCN(C)CC2)c1Cl

IC50 [5]: 40 nM
SMILES: Cc1c(F)c(N)cc(C(=O)Nc2cc(-c3ccc(C(=O)NCCCCCCC(=O)NO)cc3)ccc2N2CCN(C)CC2)c1Cl

IC50 [5]: 33 nM
SMILES: Cc1c(F)c(N)cc(C(=O)Nc2cc(-c3ccc(NC(=O)CCCCC(=O)NO)cc3)ccc2N2CCN(C)CC2)c1Cl

IC50 [5]: 30 nM
SMILES: Cc1c(F)c(N)cc(C(=O)Nc2cc(-c3ccc(C(=O)NCCCC(=O)NO)cc3)ccc2N2CCN(C)CC2)c1Cl
